Measured values: US20090137569A1, “Administration of (3S)-N-hydroxy-4-(sulfonyl)-2,2-dimethyl-3-thiomorpholine carboxamide or (S)-N_hydroxy-4-[4_(but-2-ynyloxy)phenylsulfonyl]-2,2-dimethyl thimomorpholine-3-carboxamide for preventing and/or treating inflammatory skin pathologies/afflictions” (GALDERMA RESEARCH & DEVELOPMENT, priority 2007, published 2009)

Test system: TPA-induced mouse ear edema
Assay: TPA-induced mouse ear edema test, single topical application
Assay type: in vivo
Details: Balb/c mice
Experimental: Evaluation of the Anti-Inflammatory Activity of Apratastat after a Single Topical Application in the TPA-Induced Mouse Ear Edema Test on Balb/c Mice (TPA=Tetradecanoylphorbol Acetate)
Edema is induced by single application of 20 μl of TPA dissolved in acetone at 0.01%.
The test compound is diluted in a TPA solution and applied at a concentration of 0.1%, 0.3% to 1%.
A positive control, betamethasone valerate (VdB), is also tested.
The thickness of the mouse ear is measured at T+6 h.

| Compound | reduction in the edema of the ear (single topical application at 0.01%, diluted in TPA solution, ear thickness at T+6 h) | reduction of the edema of the ear induced by TPA (single topical application at 0.1% in TPA solution, ear thickness at T+6 h, NS) | reduction of the edema of the ear induced by TPA (single topical application at 0.3% in TPA solution, ear thickness at T+6 h, **) | reduction of the edema of the ear induced by TPA (single topical application at 1% in TPA solution, ear thickness at T+6 h, **) | anti-inflammatory effect (in words) (single topical application, 0.1% to 1%, TPA-induced ear edema) |
| --- | --- | --- | --- | --- | --- |
| CCCCC(=O)O[C@]1(C(=O)CO)[C@@H](C)C[C@H]2[C@@H]3CCC4=CC(=O)C=C[C@]4(C)[C@@]3(F)[C@@H](O)C[C@@]21C [betamethasone valerate, reference compound] | 93% |  |  |  |  |
| CC1(C)SCCN(S(=O)(=O)c2ccc(OCC#CCO)cc2)[C@H]1C(=O)NO [Apratastat, (3S)—N-hydroxy-4-({4-[(4-hydroxy-2-butynyl)oxy]phenyl}sulfonyl)-2,2-dimethyl-3-thiomorpholinecarboxamide] |  | 25% | 47% | 49% | dose-dependent anti-inflammatory effect |
